Assay results published in patent US10213415B2, “Compounds as opioid receptor modulators” (JANSSEN PHARMACEUTICA NV, priority 2004, dated 2019).
Where two headings read alike, the source gives them in different places.

What was measured:
human mu opioid receptor = target: T1, human mu opioid receptor (Homo sapiens, UniProt P35372); experiment: Human Mu Opioid Receptor Binding Assay (CHO membranes, 3H-Damgo); settings: read-out: hKi μ
T1 construct: purchased Perkin Elmer RBHOMM400UA; host or cells: Chinese Hamster Ovary cells (recombinant expression)
Protocol: Membranes from Chinese Hamster Ovary cells expressing the human […] opioid receptor (Perkin Elmer #RBHOMM400UA) are homogenized in assay buffer (50 mM Tris, pH 7.5 with 5 mM MgCl2) using a glass tissue grinder, Teflon pestle and a Steadfast Stirrer (Fisher Scientific). The concentration of membranes is adjusted to 300 μg/mL in assay buffer and 100 μL is dispensed into each well of the assay plate, a 96 well round bottom polypropylene plate. Compounds to be tested are solubilized in DMSO (Pierce), 10 mM, then diluted in assay buffer to 6× the desired final concentration. The ligand, ^3H-Damgo (Perkin Elmer #NET-902) is also diluted in assay buffer to 3.6 nM. In a second 96 well round bottom polypropylene plate, known as the premix plate, 60 μL of the 6× compound is combined with 60 μL of 3.6 nM ^3H-Damgo. From this premix plate 50 μL is transferred to the assay plate containing the membranes, in duplicate. The assay plate is incubated for 2 h at room temperature. A GF/C 96 well filter plate (Perkin Elmer #6005174) is pretreated with 0.3% polyethylenimine for 30 min. The contents of the assay plate are filtered through the filter plate using a Packard Filtermate Harvester, and washed 3 times with 0.9% saline that is 4° C. The filter plate is dried, the underside sealed, and 30 μL Microscint20 (Packard #6013621) added to each well. A Topcount-NXT Microplate Scintillation Counter (Packard) is used to measure emitted energies in the range of 2.9 to 35 KeV. […] Nonspecific binding is determined in the presence of 1 μM unlabelled Damgo (Tocris #1171).

[1] = target: T2, human delta subtype 2 opioid receptor (Homo sapiens, UniProt P41143); experiment: Human Delta Opioid Receptor Binding Assay (CHO membranes, 3H-Naltrindole); settings: read-out: hKi δ
T2 construct: purchased Perkin Elmer RBHODM400UA; host or cells: Chinese Hamster Ovary cells (recombinant expression)
Protocol: This assay is designed to test the ability of a compound to interfere with the binding of tritiated Naltrindole to the human delta subtype 2 opioid receptor. Membranes from Chinese Hamster Ovary cells expressing the human delta subtype 2 opioid receptor (Perkin Elmer #RBHODM400UA) are homogenized in assay buffer (50 mM Tris, pH 7.5 with 5 mM MgCl2) using a glass tissue grinder, Teflon pestle and a Steadfast Stirrer (Fisher Scientific). The concentration of membranes is adjusted to 100 μg/mL in assay buffer and 100 μL is dispensed into each well of the assay plate, a 96 well round bottom polypropylene plate. Compounds to be tested are solubilized in DMSO (Pierce), 10 mM, then diluted in assay buffer to 6× the desired final concentration. The ligand, ^3H-Naltrindole (Perkin Elmer #NET-1065) is also diluted in assay buffer to 6 nM. In a second 96 well round bottom polypropylene plate, known as the premix plate, 60 μL of the 6× compound is combined with 60 μL of 6 nM ^3H-Naltrindole. From this premix plate 50 μL is transferred to the assay plate containing the membranes, in duplicate. The assay plate is incubated for 30 min at room temperature. A GF/C 96 well filter plate (Perkin Elmer #6005174) is pretreated with 0.3% polyethylenimine for 30 min. The contents of the assay plate are filtered through the filter plate using a Packard Filtermate Harvester, and washed 3 times with 0.9% saline that is 4° C. The filter plate is dried, the underside sealed, and 30 μL Microscint20 (Packard #6013621) added to each well. A Topcount-NXT Microplate Scintillation Counter (Packard) is used to measure emitted energies in the range of 2.9 to 35 KeV. Results are compared to maximum binding, wells receiving no inhibitors. Nonspecific binding is determined in the presence of 1 μM unlabelled Naltrindole (Sigma #N115).

[2] = system: novel environment-stressed mice; experiment: In Vivo Assay-Stress-Induced Fecal Output (Fecal Output for 1 hr); parameters: species or system mouse; settings: 30 mg/kg oral, 1 hr; for Fecal Output (# pellets) cpd: novel environment-stressed mice; for response vs control in vivo at 30 mg/kg: Mus musculus, po, 1 h
Description: This assay evaluates the fecal output in novel environment-stressed mice to that of acclimated controls.
Methods: Adult, male, Crl:CD-1(ICR) mice, weighing ˜30-35 g were used in these studies, with a minimum of 10 mice per dose group. One group of mice was assigned as acclimated, or “non-stressed” controls. These control mice were transported from colony housing, where they were housed 3/cage in polycarbonate cages with access to food and water ad lib. to the procedure room. The mice were removed from their home cages and individually housed in 20 cm wide×20 cm deep×15 cm tall cages, equipped with a wire mesh bottom where they remained for a 16-18 hr period of acclimation to their novel environment. Mice were allowed access to food and water ad lib. during acclimation. The other groups of mice were assigned as non-acclimated, or “stressed” treatment groups. Each mouse in each group was weighed and vehicle, or test compound, was intragastrically administered by oral intubation in 0.5% methylcellulose. Mice were allowed access to water only ad lib. during the test period. After compound administrations, acclimated (control) as well as non-acclimated (stressed) mice were individually housed in a 20 cm wide×20 cm deep×15 cm tall cage, with a wire mesh bottom. An absorbant cardboard is placed beneath the cages. The number of fecal pellets excreted by each mouse was determined at hourly intervals following placement of the mice in the individual cages. Raw Data=# of fecal pellets/mouse/hr. […]

[3] = relative to novel environment stress (NES) vehicle group
[4] = relative to acclimated control, read-out: Fecal Output cpd % control
[5] = relative to novel environment stress (NES) vehicle group, read-out: Fecal Output cpd % NES

T2 sequence (P41143 whole entry): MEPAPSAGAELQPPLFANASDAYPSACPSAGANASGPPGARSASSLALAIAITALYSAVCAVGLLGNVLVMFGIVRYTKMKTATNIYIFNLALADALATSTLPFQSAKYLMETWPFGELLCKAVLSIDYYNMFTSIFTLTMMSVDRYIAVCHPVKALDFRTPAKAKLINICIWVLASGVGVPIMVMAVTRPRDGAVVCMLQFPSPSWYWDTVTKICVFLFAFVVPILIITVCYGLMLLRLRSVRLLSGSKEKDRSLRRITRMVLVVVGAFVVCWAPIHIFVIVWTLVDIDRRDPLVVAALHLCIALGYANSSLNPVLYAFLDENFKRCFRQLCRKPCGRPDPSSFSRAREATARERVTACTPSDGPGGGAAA
T1 sequence (P35372 whole entry): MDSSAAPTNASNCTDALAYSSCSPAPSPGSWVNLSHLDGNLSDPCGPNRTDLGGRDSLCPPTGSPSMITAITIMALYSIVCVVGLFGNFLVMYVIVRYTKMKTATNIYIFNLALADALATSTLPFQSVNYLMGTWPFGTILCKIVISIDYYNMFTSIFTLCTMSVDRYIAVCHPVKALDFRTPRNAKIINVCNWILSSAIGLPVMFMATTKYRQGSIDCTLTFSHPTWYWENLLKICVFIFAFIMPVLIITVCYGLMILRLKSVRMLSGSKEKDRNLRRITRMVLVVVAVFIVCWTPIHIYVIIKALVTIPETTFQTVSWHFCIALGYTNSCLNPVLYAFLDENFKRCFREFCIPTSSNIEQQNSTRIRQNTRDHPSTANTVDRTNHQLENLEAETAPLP

| SMILES | Ki (human mu opioid receptor) | Ki [1] | Fecal Output (# pellets) cpd [2] | Fecal Output cpd % control ([2]; relative to acclimated control) | Fecal Output cpd % NES [2, 3] | response vs control in vivo at 30 mg/kg [2, 4] | response vs control in vivo at 30 mg/kg [2, 5] |
| --- | --- | --- | --- | --- | --- | --- | --- |
| Cc1cc(C(N)=O)cc(C)c1C[C@H](N)C(=O)N(C(C)c1ccccc1)[C@@H](C)c1nc(-c2ccccc2)c[nH]1 (single isomer, unassigned) [Cpd 111] | 0.0064 µM | 0.307 µM | 4.4 pellets | 60.8% | 42.5% | – | – |
| Cc1cc(C(N)=O)cc(C)c1C[C@H](N)C(=O)N(C(C)c1ccccc1)[C@@H](C)c1nc(-c2ccccc2)c[nH]1 (single isomer, unassigned) [Cpd 112] | 0.0095 µM | 0.135 µM | 7.2 pellets | 100.0% | 69.9% | – | – |
| Cc1cc(O)cc(C)c1C[C@H](N)C(=O)N(Cc1ccoc1)[C@@H](C)c1nc(-c2ccccc2)c[nH]1 [Cpd 55] | 0.0018 µM | 0.044 µM | 8.3 pellets | – | – | 213% | 58.9% |
| Cc1cc(O)cc(C)c1C[C@H](N)C(=O)N(Cc1ccncc1)[C@@H](C)c1nc(-c2ccccc2)c[nH]1 [Cpd 57] | 0.00066 µM | 0.0022 µM | 7.6 pellets | – | – | 195% | 53.9% |
| Cc1cc(C(N)=O)cc(C)c1C[C@H](N)C(=O)N(Cc1ccccc1)[C@@H](C)c1nc(-c2ccc(Cl)cc2)c(C)[nH]1 [Cpd 58] | 0.0085 µM | 0.07 µM | 3.9 pellets | – | – | 170% | 55.7% |
| CNc1ccc(CN(C(=O)C(N)Cc2c(C)cc(O)cc2C)C(C)c2nc(-c3ccccc3)c[nH]2)cc1 (stereo not drawn) [Cpd 78] | 0.0024 µM | 0.0289 µM | 3.3 pellets | – | – | 91.7% | 45.2% |
| CC(=O)Nc1ccc(CN(C(=O)[C@@H](N)Cc2c(C)cc(O)cc2C)[C@@H](C)c2nc(-c3ccccc3)c[nH]2)cc1 [Cpd 79] | 0.0017 µM | 0.0115 µM | 7.1 pellets | – | – | 197% | 97.3% |
| Cc1cc(O)cc(C)c1C[C@H](N)C(=O)N(Cc1ccc(C(=O)O)cc1)[C@@H](C)c1nc(-c2ccccc2)c[nH]1 [Cpd 80] | 0.00109 µM | 0.00095 µM | – | – | – | – | 75.3% |
| Cc1cc(O)cc(C)c1C[C@H](N)C(=O)N(C(C)C)[C@@H](Cc1cccc(CN)c1)c1nc(-c2ccccc2)c[nH]1 [Cpd 120] | 0.0208 µM | 0.74 µM | – | – | – | – | – |
| Cc1cc(O)cc(C)c1C[C@H](N)C(=O)N(C(C)C)[C@@H](Cc1cccc(C(N)=O)c1)c1nc(-c2ccccc2)c[nH]1 [Cpd 121] | 0.0253 µM | 0.182 µM | – | – | – | – | – |
| Cc1cc(O)cc(C)c1C[C@H](N)C(=O)N(Cc1nc(-c2ccc(C(=O)O)cc2)c(C)[nH]1)C(C)C [Cpd 123] | 0.047 µM | 0.084 µM | – | – | – | – | – |
| Cc1cc(O)cc(C)c1C[C@H](N)C(=O)N(Cc1nc(-c2cccnc2)c(C)[nH]1)C(C)C [Cpd 124] | 0.0017 µM | 1.28 µM | – | – | – | – | – |
| COc1ccc(-c2nc(CN(C(=O)[C@@H](N)Cc3c(C)cc(O)cc3C)C(C)C)[nH]c2C)cc1 [Cpd 125] | 0.0086 µM | 0.237 µM | – | – | – | – | – |
| Cc1cc(O)cc(C)c1C[C@H](N)C(=O)N(Cc1nc(-c2cc(F)cc(F)c2)c(C)[nH]1)C(C)C [Cpd 126] | 0.0078 µM | 0.164 µM | – | – | – | – | – |
| Cc1cc(C(N)=O)cc(C)c1C[C@H](N)C(=O)N(C1CCCCC1)[C@@H](C)c1nc(-c2ccccc2)c[nH]1 [Cpd 127] | 0.047 µM | 0.71 µM | – | – | – | – | – |
| Cc1cc(O)cc(C)c1C[C@H](N)C(=O)N(Cc1nc(-c2cccc(-c3ccccc3)c2)c(C)[nH]1)C(C)C [Cpd 134] | 0.121 µM | 0.463 µM | – | – | – | – | – |

| SMILES | Ki (human mu opioid receptor) | Ki [1] | Fecal Output (# pellets) cpd [2] | Fecal Output cpd % control ([2]; relative to acclimated control) | Fecal Output cpd % NES [2, 3] | response vs control in vivo at 30 mg/kg [2, 4] | response vs control in vivo at 30 mg/kg [2, 5] |
| --- | --- | --- | --- | --- | --- | --- | --- |
| COc1ccccc1-c1nc(CN(C(=O)[C@@H](N)Cc2c(C)cc(O)cc2C)C(C)C)[nH]c1C [Cpd 135] | 0.007 µM | 1.04 µM | – | – | – | – | – |
| CC(C)N(C(=O)[C@@H](N)Cc1cccc(C(N)=O)c1)[C@@H](Cc1ccccc1)c1nc(-c2ccccc2)c[nH]1 [Cpd 136] | 0.726 µM | 1.61 µM | – | – | – | – | – |
| Cc1cc(O)cc(C)c1C[C@H](N)C(=O)N(C(C)C)[C@@H](COCc1ccccc1)c1nc(-c2ccccc2)c[nH]1 [Cpd 138] | 0.104 µM | 1.18 µM | – | – | – | – | – |
| Cc1cc(O)cc(C)c1CC(N)C(=O)Oc1cc(C)c(C[C@H](N)C(=O)N(C(C)C)[C@@H](CC(C)C)c2nc(-c3ccccc3)c[nH]2)c(C)c1 (stereo partly drawn) [Cpd 139] | 0.058 µM | 1.26 µM | – | – | – | – | – |
| Cc1cc(O)cc(C)c1C[C@H](N)C(=O)N(C(C)C)[C@@H](CC(C)C)c1nc(-c2ccccc2)c[nH]1 [Cpd 140] | 0.079 µM | 0.985 µM | – | – | – | – | – |
| Cc1cc(O)cc(C)c1C[C@H](N)C(=O)N(Cc1nc(-c2cc(Cl)cc(Cl)c2)c(C)[nH]1)C(C)C [Cpd 141] | 0.052 µM | 0.252 µM | – | – | – | – | – |
| COc1cccc(-c2nc(CN(C(=O)[C@@H](N)Cc3c(C)cc(O)cc3C)C(C)C)[nH]c2C)c1 [Cpd 142] | 0.0082 µM | 0.454 µM | – | – | – | – | – |
| Cc1[nH]c(CN(C(=O)[C@@H](N)Cc2ccc(O)cc2)C(C)C)nc1-c1ccccc1 [Cpd 154] | 0.001 µM | > 10 µM | – | – | – | – | – |
| Cc1cc(O)cc(C)c1C[C@H](N)C(=O)N(Cc1nc(-c2cccc3ccccc23)c(C)[nH]1)C(C)C [Cpd 156] | 0.00059 µM | 0.38 µM | – | – | – | – | – |
| CC(C)N(C(=O)[C@@H](N)Cc1cccc(C#N)c1)[C@@H](Cc1ccccc1)c1nc(-c2ccccc2)c[nH]1 [Cpd 157] | 0.0022 µM | > 10 µM | – | – | – | – | – |
| CC(C)N(C(=O)[C@@H](N)Cc1ccc(O)cc1)[C@@H](Cc1ccccc1)c1nc(-c2ccccc2)c[nH]1 [Cpd 158] | 0.00023 µM | > 10 µM | – | – | – | – | – |
| Cc1cc(O)cc(C)c1C[C@H](N)C(=O)N(C(C)C)[C@@H](Cc1ccccc1)c1nc(-c2ccccc2)c[nH]1 [Cpd 159] | 0.0086 µM | 0.4 µM | – | – | – | – | – |
| CC(C)[C@@H](c1nc(-c2ccccc2)c[nH]1)N(C(=O)[C@@H](N)Cc1cccc(C#N)c1)C(C)C [Cpd 160] | > 1 µM | > 10 µM | – | – | – | – | – |
| CC(C)[C@@H](c1nc(-c2ccccc2)c[nH]1)N(C(=O)[C@@H](N)Cc1ccc(O)cc1)C(C)C [Cpd 161] | > 1 µM | > 10 µM | – | – | – | – | – |
| Cc1cc(O)cc(C)c1C[C@H](N)C(=O)N(C(C)C)[C@H](c1nc(-c2ccccc2)c[nH]1)C(C)C [Cpd 162] | 0.0076 µM | 0.173 µM | – | – | – | – | – |
